Experimental data reported in patent US5244920A, “Pharmaceutical compositions having therapeutical activity based on mercaptoethansulphonic arginine salt” (Schering Spa, priority 1985, dated 1993).

Legend:
pH in water solution = assay type: physicochemical; conditions: 10% aqueous solution
solubility in water = assay type: physicochemical
urinary Trp metabolites = assay: in vivo trial: urinary tryptophan and metabolites in bladder cancer patients (HPLC in reverse phase)
Procedure: 24 bladder cancer patients were randomized into two groups to receive MESNA-Arginine (per os, 800 mg/daily) or placebo. In both groups 24 hours before and after administration of the drug (MESNA-Arginine, or Placebo), urinary Kynurenine (Ky), Xanthurenic acid (XA), 5-hydroxy-indoleacetic acid (5-HIAA), AA, Trp and 3-OH-AA were determined by HPLC in reverse phase (Rocchini P., Bizzari M., Pompei M; Ciani D., Panicucci M. and Gallo S. Urinary determination of Tryptophan and related metabolites through HPLC in reverse-phase. Rass. Chimi. 1:15-18, 1984.)

[1] = background statement; cited from earlier work
[2] = per os, 800 mg/daily, after 24 hours, P-0.001
[3] = per os, 800 mg/daily, after 24 hours, listed as MESNA-Arginine
[4] = per os, 800 mg/daily, after 24 hours, listed as MESNA-arginine

Structure (SMILES)	pH in 10% water solution (pH in water solution)	solubility in water (solubility in water)	cerebral uptake of Trp (urinary Trp metabolites; inferred from rate excretion of 5-HIAA)	urinary tryptophan levels (urinary Trp metabolites; per os, 800 mg/daily, after 24 hours)	reduction of urinary 3-OH-anthranilic acid (urinary Trp metabolites; [2]) [%]	reduction of urinary anthranilic acid (urinary Trp metabolites; [2]) [%]	urinary 5-HIAA (urinary Trp metabolites; [3])	urinary kynurenine (Ky) (urinary Trp metabolites; [3])	urinary xanthurenic acid (XA) (urinary Trp metabolites; [3])	urinary 5-HIAA (urinary Trp metabolites; [4])	urinary kynurenine (Ky) (urinary Trp metabolites; [4])	urinary xanthurenic acid (XA) (urinary Trp metabolites; [4])	instability of the compound in the free state [1]
O=S(=O)(O)CCS [Example 2, arginine mercaptoethansulphonate]	6.7	perfect	no variations	slight reduction	-71	-61	no variation	no variation	no variation	substantial invariance	unchanged	unchanged	
O=S(=O)(O)CCS [MESNA, mercaptoethansulphonic acid]													high instability
